Laboratory results as given in patent US9770439B2, “Hepatitis C virus inhibitors” (priority 2013, dated 2017).

Assays:
Format in all cases: cell-based
[1] = system: HCV replicon, genotype 1a Y93H variant with tyrosine 93 changed to histidine in the NS5A protein; conditions: genotype 1a Y93H replicon; test compound titrated with compound N47 fixed at 200 nM versus titrated singly
Description: Combinations can be examined for synergistic activity using a variety of putative NS5A-targeting compounds and a variety of test compounds. […] The test compound can be chosen from compounds exemplified below, which were prepared by methods known in the art, or from others disclosed in the literature.
Similarly, BMS-790052 can be tested singly and in combination with a fixed amount of compound N47 in the HCV replicon cell based assay consisting of the genotype 1a Y93H variant with tyrosine 93 changed to histidine in the NS5A protein.

[2] = system: HCV replicon, genotype 1a L31V variant with leucine 31 changed to valine in the NS5A protein; conditions: genotype 1a L31V replicon; test compound titrated with compound N47 fixed at 200 nM versus titrated singly
[3] = system: HCV replicon, genotype-1a variant with glutamine 30 changed to glutamate in the NS5A protein
From the text: The NS5A synergistic inhibitory effect of test compounds can be determined using various amounts of an NS5A-targeting compound with titration of a second compound of interest. […] In one embodiment, the HCV genotype strain can be genotype 1a containing a change at amino acid 30 of the NS5A protein consisting of glutamine to glutamate. The test compound can be chosen from compounds listed above or from others present in the literature.

SMILES | Fold - Synergistic G-1a (Y93H) [1] [Fold] | Fold - Synergistic G-1a (L31V) [2] [Fold] | Fold-Synergistic 1a (Q30E) [3]
O=C(Cc1ccccc1)N1CCCC1c1nc2cc(-c3ccc4nc([C@@H]5CCCN5C(=O)Cc5ccccc5)[nH]c4c3)ccc2[nH]1 (stereo partly shown) | <10 | <10 | –
CN(C)[C@@H](C(=O)N1CCC[C@H]1C(=O)Nc1cccc(-c2ncc(-c3ccc4nc([C@@H]5CCCN5C(=O)[C@@H](c5ccccc5)N(C)C)[nH]c4c3)o2)c1)c1ccccc1 | 10 | – | –
Cc1nc2cccc(-c3ncc(-c4ccc5nc([C@@H]6CCCN6C(=O)[C@@H](c6ccccc6)N(C)C)[nH]c5c4)o3)c2[nH]1 | – | >10 | –
COC(=O)N[C@@H](C(=O)N1CCC[C@H]1c1nc2ccc(C3=NCC(c4ccc(N5CCOCC5)cc4)O3)cc2[nH]1)c1ccccc1 (stereo partly shown) | <10 | <10 | –
COC(=O)N[C@@H](C(=O)N1CCCC1c1ncc(-c2ccc(-c3ccc(-c4cnc([C@@H]5CCCN5C(=O)[C@H]5CCCO5)[nH]4)cc3)cc2)[nH]1)c1ccccc1 (stereo partly shown) | <10 | <10 | –
CN(C)[C@@H](C(=O)N1CCC[C@H]1C1=NC(c2ccc(OCc3ccc(-c4c[nH]c([C@@H]5CCCN5C(=O)[C@@H](c5ccccc5)N(C)C)n4)cc3)cc2)CN1)c1ccccc1 (stereo partly shown) | <10 | <10 | –
CN(C)[C@H](C(=O)N1CCCC[C@H]1c1ncc(-c2ccc(-c3ccc(-c4cnc([C@@H]5CCCCN5C(=O)[C@@H](c5ccccc5)N(C)C)[nH]4)cc3)cc2)[nH]1)c1ccccc1 | >10 | <10 | –
COC(=O)N[C@H](C(=O)N1CCCC1c1nc2ccc(C#CC#Cc3ccc4nc([C@@H]5CCCN5C(=O)[C@@H](NC(=O)OC)C(C)C)[nH]c4c3)cc2[nH]1)C(C)C (stereo partly shown) | >10 | >100 | –
CC[C@H]1CC[C@@H](c2ncc(-c3ccc(-c4ccc(-c5cnc([C@@H]6CC[C@H](CC)N6C(=O)[C@@H](NC(=O)OC)C(C)C)[nH]5)cc4)cc3)[nH]2)N1C(=O)C(NC(=O)OC)C(C)C (stereo partly shown) | >100 | >100 | –
COC(=O)N[C@H](C(=O)N1[C@@H]2C[C@@H]2C[C@H]1c1ncc(-c2ccc(C#Cc3ccc(-c4cnc([C@@H]5C[C@H]6C[C@H]6N5C(=O)[C@@H](NC(=O)OC)C(C)C)[nH]4)cc3)cc2)[nH]1)C(C)C | >10 | <10 | –
COC(=O)N[C@H](C(=O)N1CC[C@H](C)C1c1ncc(-c2ccc(-c3ccc(-c4cnc([C@@H]5[C@@H](C)CCN5C(=O)[C@@H](NC(=O)OC)C(C)C)[nH]4)cc3)cc2)[nH]1)C(C)C (stereo partly shown) | >100 | >100 | –
COC(=O)N[C@H](C(=O)N1CCCC1c1ncc(C#Cc2ccc3cc(C#Cc4cnc([C@@H]5CCCN5C(=O)[C@@H](NC(=O)OC)C(C)C)[nH]4)ccc3c2)[nH]1)C(C)C (stereo partly shown) | <10 | >10 | –
COC(=O)N[C@H](C(=O)CN1C(c2ncc(-c3ccc(C#Cc4ccc5c(ccc6[nH]c([C@@H]7C[C@H]8C[C@H]8N7C(=O)[C@@H](NC(=O)OC)C(C)C)nc65)c4)cc3)[nH]2)C[C@H]2C[C@H]21)C(C)C (stereo partly shown) | >10 | <10 | –
COC(=O)N[C@H](C(=O)CN1[C@@H]2C[C@@H]2C[C@H]1c1nc2ccc3cc(C#Cc4ccc5c(ccc6nc([C@@H]7C[C@H]8C[C@H]8N7C(=O)[C@@H](NC(=O)OC)C(C)C)[nH]c65)c4)ccc3c2[nH]1)C(C)C | >10 | >10 | –
COC(=O)N[C@H](C(=O)N1CCCC1c1nc2ccc(-c3ccc4cc(-c5ccc6nc([C@@H]7CCCN7C(=O)[C@@H](NC(=O)OC)C(C)C)[nH]c6c5)ccc4n3)cc2[nH]1)C(C)C (stereo partly shown) | >10 | >10 | –
COC(=O)N[C@H](C(=O)N1C2CC2CC[C@H]1c1ncc(-c2ccc(-c3ccc(-c4cnc([C@@H]5CCC6CC6N5C(=O)[C@@H](NC(=O)OC)C(C)C)[nH]4)cc3)cc2)[nH]1)C(C)C (stereo partly shown) | >100 | >100 | –
COC(=O)N[C@H](C(=O)N1[C@@H]2C[C@@H]2C[C@H]1C(=O)Nc1ccc(C23CCC4C5CC6(c7ccc(NC(=O)[C@@H]8C[C@H]9C[C@H]9N8C(=O)[C@@H](NC(=O)OC)C(C)C)cc7)CC4C(C2)C(C6)C5C3)cc1)C(C)C | <10 | <10 | –

SMILES | Fold - Synergistic G-1a (Y93H) [1] [Fold] | Fold - Synergistic G-1a (L31V) [2] [Fold] | Fold-Synergistic 1a (Q30E) [3]
COC(=O)N[C@H](C(=O)N1C(c2ncc(-c3ccc(-c4ccc(-c5cnc([C@@H]6CCC7CC7N6C(=O)[C@@H](NC(=O)OC)C(C)C)[nH]5)cc4)cc3)[nH]2)CCC2CC21)C(C)C (stereo partly shown) | >100 | >100 | –
COC(=O)N[C@H](C(=O)N1[C@H]2C[C@@]2(C)C[C@H]1c1ncc(-c2ccc(-c3ccc(-c4cnc([C@@H]5C[C@@H]6C[C@@H]6N5C(=O)[C@@H](NC(=O)OC)C(C)C)[nH]4)cc3)cc2)[nH]1)C(C)C | >100 | >100 | –
COC(=O)N[C@H](C(=O)N1C[C@@H](C)CC1c1ncc(-c2ccc(-c3ccc4cc(-c5cnc([C@@H]6C[C@H](C)CN6C(=O)[C@@H](NC(=O)OC)C(C)C)[nH]5)ccc4c3)cc2)[nH]1)C(C)C (stereo partly shown) | >10 | <10 | –
COC(=O)N[C@H](C(=O)N1C[C@H](C)C[C@H]1c1ncc(-c2ccc(-c3ccc4cc(-c5cnc([C@@H]6C[C@@H](C)CN6C(=O)[C@@H](NC(=O)OC)C(C)C)[nH]5)ccc4c3)cc2)[nH]1)C(C)C | >10 | <10 | –
COC(=O)N[C@H](C(=O)N1CCCC1c1cn(-c2ccc(-c3ccc(-n4cnc([C@@H]5CCCN5C(=O)[C@@H](NC(=O)OC)C(C)C)c4)cc3)cc2)cn1)C(C)C (stereo partly shown) | >10 | >10 | –
COC(=O)N[C@H](C(=O)N1C(c2ncc(-c3ccc(-c4cc5cc(-c6c[nH]c([C@@H]7C[C@H]8C[C@H]8N7C(=O)[C@@H](NC(=O)OC)C7CCOCC7)n6)ccc5o4)cc3)[nH]2)C[C@H]2C[C@H]21)C1CCOCC1 (stereo partly shown) | <10 | <10 | –
COC(=O)N[C@H](C(=O)N1C2C[C@@H]2C[C@H]1c1ncc(-c2ccc(C#Cc3ccc(-c4cnc([C@@H]5C[C@H]6C[C@H]6N5C(=O)[C@@H](NC(=O)OC)C(C)C)[nH]4)cc3)cc2)[nH]1)C(C)C (stereo partly shown) | >10 | <10 | –
COc1ccccc1C(O)C1(C(=O)N[C@H](c2nc(-c3ccc(-c4ccc(-c5c[nH]c([C@@H](NC(=O)C6(C(O)c7ccccc7OC)CC6)C(C)(C)C)n5)cc4)cc3)c[nH]2)C(C)(C)C)CC1 (single isomer, unassigned) [Compound N-135A] | – | – | >100
COc1ccccc1C(O)C1(C(=O)N[C@H](c2nc(-c3ccc(-c4ccc(-c5c[nH]c([C@@H](NC(=O)C6(C(O)c7ccccc7OC)CC6)C(C)(C)C)n5)cc4)cc3)c[nH]2)C(C)(C)C)CC1 (single isomer, unassigned) [Compound N-135B] | – | – | >100
COc1ccccc1C(O)C1(C(=O)N[C@H](c2nc(-c3ccc(-c4ccc(-c5c[nH]c([C@@H](NC(=O)C6(C(O)c7ccccc7OC)CC6)C(C)(C)C)n5)cc4)cc3)c[nH]2)C(C)(C)C)CC1 (single isomer, unassigned) [Compound N-135C] | – | – | >100
COC(C)(CCO)C(=O)N[C@H](c1nc(-c2ccc(-c3ccc(-c4c[nH]c([C@@H](NC(=O)C(C)(CCO)OC)C(C)(C)C)n4)cc3)cc2)c[nH]1)C(C)(C)C (single isomer, unassigned) [Compound W-258] | – | – | >100
COC(C)(CCO)C(=O)N[C@H](c1nc(-c2ccc(-c3ccc(-c4cnc([C@@H](NC(=O)C(C)(CCO)OC)C(C)(C)C)[nH]4)cc3)cc2)c[nH]1)C(C)(C)C (single isomer, unassigned) [Compound W-259] | – | – | >100
CC1([C@H](NC(=O)C2CCC(F)(F)CC2)c2cc3ccc(C#Cc4ccc5nc([C@@H](NC(=O)C6CCC(F)(F)CC6)C6(C)CC6)[nH]c5c4)cc3[nH]2)CC1 [Compound B67] | – | – | >100
O=C(C(=O)N1C(c2nc(-c3ccc(-c4ccc(-c5c[nH]c(C6C[C@@H]7C[C@@H]7N6C(=O)C(=O)N6CCC(F)(F)CC6)n5)cc4)cc3)c[nH]2)C[C@@H]2C[C@@H]21)N1CCC(F)(F)CC1 (stereo partly shown) [Compound W-243] | – | – | >100
CCOC(=O)NC1(C(=O)N[C@H](c2nc(-c3ccc(-c4ccc(-c5c[nH]c([C@@H](NC(=O)C6(NC(=O)OCC)CCCCC6)C(C)(C)C)n5)cc4)cc3)c[nH]2)C(C)(C)C)CCCCC1 [Compound W-250] | – | – | >100
CC(C)(C)C(=O)NC(c1ncc(-c2ccc(-c3ccc(-c4cnc([C@@H](NC(=O)C(C)(C)C)C5(C)CCC5)[nH]4)cc3)cc2)[nH]1)C1(C)CCC1 (stereo partly shown) [Compound Y-39] | – | – | >100
